Experimental data as given in patent US4416870A, “Antibiotic compound, its production and its medicinal use” (Bayer Aktiengesellschaft, priority 1981, dated 1983).
*1 amine or outer side, *2 acyl side, *3 side chain or, on linkers, in order; H or OH if unused. Where a SMILES comes first, the peptide text is derived from it. [ ]: non-standard residue; d: D form. ξ: configuration not given here. X1 = Cn1c(=O)ccn(C2SC(C(O)C(N[*:1])C(=O)[*:2])C(O)C2O)c1=O; ξOrn(N(OH)Ac) = CC(=O)N(O)CCCC(N)C(=O)O; ξS = NC(CO)C(=O)O

Tests used:
E. coli 205 Kn = test: Animal test (mice), ED100 after intraperitoneal infection and subcutaneous treatment (Example B); type: in vivo, mice infected with E. coli; details: Escherichia coli, sc, dose at which all infected and treated animals survive
Experimental: (§1) BAYi 3265 component A animal test (mice) | ED100 after intraperitoneal | infection and subcutaneous |Infecting germ treatment in mg/kg The animals were infected with a quantity of bacteria, which quantity led to the death of the control animals within 24 hours. The ED100 was the dose which allowed all infected and treated animals to survive.

E. coli Neumann [1] = test: as above; type: in vivo, mice infected with E. coli; details: Escherichia coli, sc, dose at which all infected and treated animals survive
Experimental: as §1

Klebsiella pneumoniae 63 = test: as above; type: in vivo, mice infected with Klebsiella pneumoniae; details: sc, dose at which all infected and treated animals survive
Experimental: as §1

E. coli Neumann [2] = test: White mouse, ED100 (complete cure) on infection with E. coli Neumann, single subcutaneous application; type: in vivo, white mouse infected with E. coli; details: Escherichia coli, sc, 0.5 h, once, 30 minutes after infection, subcutaneously
Experimental: For the white mouse, an ED100 (complete cure) is found in vivo, at 3 mg of antibiotic/kg of body weight, on infection with E. coli Neumann; therapy: application once, 30 minutes after infection, subcutaneously.

physchem = details: organic solvent or mixture

solubility (physchem; chloroform): < 100 µg/mL
solubility (physchem; dimethylformamide): < 10000 µg/mL
solubility (physchem; dimethylsulphoxide): < 10000 µg/mL
solubility (physchem; ether): < 100 µg/mL
solubility (physchem; ethyl acetate): < 100 µg/mL
solubility (physchem; methanol): < 10000 µg/mL
solubility (physchem; petroleum ether): < 100 µg/mL
Structure (SMILES): CC(=O)N(O)CCCC(N)C(=O)NC(CCCN(O)C(C)=O)C(=O)NC(CCCN(O)C(C)=O)C(=O)NC(CO)C(=O)NC(C(=O)O)C(O)C1SC(n2ccc(=O)n(C)c2=O)C(O)C1O (centres unmarked) [BAYi 3265 Component A] (H-[ξOrn(N(OH)Ac)][ξOrn(N(OH)Ac)][ξOrn(N(OH)Ac)][ξS][X1]-OH)
ED100 (E. coli 205 Kn): 0.1 mg/kg
ED100 (E. coli Neumann [1]): 0.5 mg/kg
ED100 (Klebsiella pneumoniae 63): 0.2 mg/kg
ED100 (E. coli Neumann [2]): 3 mg/kg
